According to patent US6825209B2, “Compounds having unique CB1 receptor binding selectivity and methods for their production and use” (Research Triangle Institute, priority 2002, dated 2004):
Read-outs that look alike come from different tables or passages of the source. Marks after values point to notes of the source that are not given here.

Key:
[1] = tested on: CB1 and CB2 receptors; conditions: literature, cited from earlier work
[2] = biological target: T1, human CB1 receptor (Homo sapiens, UniProt P21554); assay: Radioligand displacement in human CB1 receptor-transfected cells (HEK-293); format: binding
T1 construct: expressed in transfected cells; host or cells: HEK-293
Procedure, shortened: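 Radioligand displacement was run on HEK-293 cells expressing human CB1, with incubation and separation as for rat brain membranes. IC50 values came from one- or two-site nonlinear regression and were converted to Ki by Cheng-Prusoff.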

[3] = biological target: T2, G-protein-linked cannabinoid receptors (Rattus norvegicus, UniProt P20272); assay: GTP-γ-[35S] binding in whole rat brain; format: biochemical; conditions: for Emax: read-out: Emax, GTP-γ-[35S] in Whole Rat Brain
T2 construct: tissue Charles River or Pel-Freez Biologicals; host or cells: whole rat brain crude membrane homogenate
Description: Cannabinoid receptor-mediated alteration in GTP-γ-[^35S] binding.
(§1) Introduction. The purpose of this assay was to characterize the functional activity of lead compounds identified by the radioligand competition binding assays described above. Data from the GTP-γ-[^35S] binding assay was used to determine if a compound was an agonist, antagonist or inverse agonist at G-protein-linked cannabinoid receptors. Agonist binding to a G-protein-linked receptor results in an increased affinity of the G-protein α-subunit for GTP relative to GDP. Eventually, an active αGTP complex forms to complete the stimulus-effector coupling. The α-subunit has intrinsic GTPase activity which generates a free α-subunit which can recombine with the β- and γ-subunits readying the G-protein for another signal transduction cycle. In the current assay, GTP-γ-[^35S] cannot be hydrolyzed by the α-subunit. Thus, the amount of bound GTP-γ-[^35S] is a marker for G-protein activation. In this assay, an agonist increases basal GTP-γ-[^35S] binding, an inverse agonist decreases basal binding and basal binding would be unaffected by an antagonist.
Experimental Design. The specific binding of GTP-γ-[^35S], in the absence of test compound, was termed “basal” activity. Test compounds were characterized as agonist, antagonist, or inverse agonist based on their effect on basal activity. […] The concentrations spanned two orders of magnitude because affinity may not be related to efficacy. […] Effects of the test compounds are reported as the percent change from basal. More thorough dose-response analysis may be run to determine, for example, if a compound is a full or partial agonist.
Methods. […] In a final volume of 0.5 mL, each assay tube contained: 0.02 mg crude membrane homogenate (0.1 mL), 200 μM GDP (0.05 mL; to reduce basal G-protein activity), 0.1 nM GTP-γ-[^35S] (0.05 mL) and several concentrations of test compound (0.05 mL) or an equivalent volume of vehicle (used for determination of total binding). Nonspecific binding was determined in the presence of 100 μM unlabeled GTP-γ-S (0.05 mL). Duplicate samples were incubated for 1 h at 30° C. Since this assay is amenable for use with high throughput screening methods, the binding assays were run using a 96-well plate format. Specific binding was calculated as total binding-nonspecific binding.

[4] = biological target: T3, human CB2 receptor (Homo sapiens, UniProt P34972); assay: Displacement of 3H-CP55,940 in human CB2 receptor-transfected cells (CHO-K1); format: binding; conditions: radioligand 3H-CP55940, Tables 6 and 7
T3 construct: expressed in transfected cells; host or cells: CHO-K1
Experimental: (§2) Human CB2 receptor affinity. The relative selectivity of the analogs for CB1 versus CB2 receptors varied modestly regardless of the structural modifications examined to date.
Methods—binding assay in transfected cell lines. The methods used for performing binding assays in transfected cells expressing human CB1 or CB2 receptors are those used above. The CB1 receptor involved a HEK-293 expression system whereas the CB2 receptor was expressed in CHO-K1 cells. […] The incubations and separations were then performed as described above for rat brain membrane preparations.
Data analysis. Saturation and displacement data were analyzed by unweighted nonlinear regression of receptor binding data. For displacement studies, curve-fitting and IC50 calculation were done with GraphPad Prism (GraphPad Software, Inc., San Diego, Calif.), which fits the data to one and two-site models and compares the two fits statistically. A similar approach was used for the analysis of isotherm data for calculation of Kd's. A two-site fit was accepted only if it was statistically significant (p<0.05) and the following results were not observed:
IC50 values were then converted to Ki values by reported methods (Cheng and Prusoff, 1973). The statistical evaluation of curve-fitting data allowed for a non-arbitrary conclusion based on the displacement data.

[5] = biological target: T4, CB1 receptor (Rattus norvegicus, UniProt P20272); assay: Radioligand displacement in whole rat brain (CB1) membrane preparations; format: binding; conditions: Tables 1 and 2
T4 construct: Whole rat brains or dissected regions from live CD rats; tissue Charles River or Pel-Freez Biologicals; host or cells: whole rat brain (CD rats), P2 membrane
Procedure, shortened: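 Washed P2 membranes from whole rat brain (ca. 0.2 mg/mL) in 50 mM Tris.HCl, 1 mM EDTA, 3 mM MgCl2, pH 7.4 were incubated with radioligand and compound for 1 h at 30 °C, then filtered. IC50 values came from one- or two-site nonlinear fits and were converted to Ki by Cheng-Prusoff. Duplicates were run across 3–6 experiments.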

[6] = tested on: CB1 versus CB2 receptors; assay: Relative selectivity of the analogs for CB1 versus CB2 receptors; conditions: CB1 versus CB2 binding, Tables 1, 6 and 7
Description: as §2

[7] = biological target: T5, CB1 (human) clone receptors (Homo sapiens, UniProt P21554); assay: GTP-γ-[35S] binding in CB1 (human) clone receptors; format: biochemical; conditions: assay run in CB1 (human) clone receptors
T5 construct: expressed in transfected cells
Description: Cannabinoid receptor-mediated alteration in GTP-γ-[^35S] binding. In addition to assessing CB1 and CB2 receptor affinities, all of the compounds have been screened in the GTP-γ-[^35S] assay to begin characterization of the compounds as agonists, partial agonists, antagonists or inverse agonists.
as §1, with “In the current assay, GTP-γ-[^35S] cannot be hydrolyzed by the α-subunit. Thus, the amount of bound GTP-γ-[^35S] is a marker for G-protein activation. In this assay, an agonist increases basal GTP-γ-[^35S] binding, an inverse agonist decreases basal binding and basal binding would be unaffected by an antagonist.” left out
Methods. Binding was determined using membrane homogenates from whole brain The assays were conducted as previously described (Sim et al. 1996) on brain tissue prepared as described above. […] Nonspecific binding was determined in the presence of 100 μM unlabeled GTP-γ-S (0.05 mL). […] Specific binding was calculated as total binding-nonspecific binding.

[8] = Ki, displacement of 3H-SR141716A
[9] = Ki, displacement of 3H-WIN55212-2
[10] = EC50, GTP-γ-[35S] in Whole Rat Brain, whole rat brain membranes, inverse agonist/antagonist activity
[11] = read-out: Ki, displacement of 3H-CP55940, human CB2 transfected cells
[12] = Ki, displacement of 3H-WIN55212-2, whole rat brain membranes, radioligand 3H-WIN55212-2
[13] = read-out: Ki, displacement of 3H-CP55940, whole rat brain membranes, radioligand 3H-CP55940
[14] = read-out: Ki, displacement of 3H-SR141716A, whole rat brain membranes, radioligand 3H-SR141716A
[15] = whole rat brain membranes, radioligand 3H-CP55940
[16] = whole rat brain membranes, radioligand 3H-SR141716A
[17] = whole rat brain membranes, radioligand 3H-WIN55212-2
[18] = Ki, displacement of 3H-CP55940, human CB2 transfected cells
[19] = Ki, displacement of 3H-CP55940, whole rat brain membranes, radioligand 3H-CP55940
[20] = Ki, displacement of 3H-SR141716A, whole rat brain membranes, radioligand 3H-SR141716A

T2 sequence (P20272 whole entry): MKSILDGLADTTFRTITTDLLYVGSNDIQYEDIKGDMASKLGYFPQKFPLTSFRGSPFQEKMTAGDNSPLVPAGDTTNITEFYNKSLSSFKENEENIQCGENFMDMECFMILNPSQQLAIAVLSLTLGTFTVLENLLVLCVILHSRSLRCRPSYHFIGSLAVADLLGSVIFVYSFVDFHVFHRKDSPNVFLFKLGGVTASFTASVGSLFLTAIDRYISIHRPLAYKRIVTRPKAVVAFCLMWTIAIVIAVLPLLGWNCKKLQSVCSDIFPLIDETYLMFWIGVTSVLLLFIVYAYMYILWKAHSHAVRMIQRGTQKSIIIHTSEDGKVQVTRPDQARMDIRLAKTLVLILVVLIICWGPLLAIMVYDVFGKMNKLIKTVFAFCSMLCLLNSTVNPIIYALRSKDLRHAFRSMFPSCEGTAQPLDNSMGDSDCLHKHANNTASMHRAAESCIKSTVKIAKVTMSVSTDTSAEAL
T4 sequence (P20272 whole entry): as above
T3 sequence (P34972 whole entry): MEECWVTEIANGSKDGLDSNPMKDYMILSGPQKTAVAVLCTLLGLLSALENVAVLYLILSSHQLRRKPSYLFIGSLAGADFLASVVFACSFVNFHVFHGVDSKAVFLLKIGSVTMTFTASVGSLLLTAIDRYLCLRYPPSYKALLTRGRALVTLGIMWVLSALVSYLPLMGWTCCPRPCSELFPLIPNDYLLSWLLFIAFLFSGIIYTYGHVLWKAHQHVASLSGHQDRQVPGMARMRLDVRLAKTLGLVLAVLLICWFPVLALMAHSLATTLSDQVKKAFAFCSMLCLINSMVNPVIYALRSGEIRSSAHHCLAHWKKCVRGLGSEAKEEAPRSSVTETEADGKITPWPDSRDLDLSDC
T1 sequence (P21554 whole entry): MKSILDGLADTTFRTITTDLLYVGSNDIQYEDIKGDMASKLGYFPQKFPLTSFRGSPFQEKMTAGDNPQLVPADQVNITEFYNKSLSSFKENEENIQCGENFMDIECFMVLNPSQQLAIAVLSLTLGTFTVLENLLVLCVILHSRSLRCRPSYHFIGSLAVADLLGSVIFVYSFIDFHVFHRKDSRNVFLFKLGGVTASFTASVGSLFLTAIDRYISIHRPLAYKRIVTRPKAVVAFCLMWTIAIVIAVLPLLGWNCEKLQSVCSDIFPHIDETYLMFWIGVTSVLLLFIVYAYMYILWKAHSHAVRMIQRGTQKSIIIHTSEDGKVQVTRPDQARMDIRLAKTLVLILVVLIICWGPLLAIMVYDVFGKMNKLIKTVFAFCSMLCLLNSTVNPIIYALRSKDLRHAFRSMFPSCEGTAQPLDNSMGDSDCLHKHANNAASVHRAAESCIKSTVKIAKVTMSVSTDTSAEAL
T5 sequence (P21554 whole entry): as above

Structure (SMILES) | Max. Disp. %, 3H-CP55940 [2] [%] | Max. Disp. %, 3H-SR141716A [2] [%] | Max. Disp. %, 3H-WIN55212-2 [2] [%] | Ki ([2]; Ki, displacement of 3H-CP55940) [µM] | Ki [2, 8] [µM] | Ki [2, 9] [µM] | Emax [3] [%] | Max. Disp. %, 3H-CP55940 ([4]; human CB2 transfected cells) [%] | Ki [4, 11] [µM] | Ki [5, 12] [µM] | Ki [5, 13] [µM] | Ki [5, 14] [µM] | Max. Disp. %, 3H-CP55940 [5, 15] [%] | Max. Disp. %, 3H-SR141716A [5, 16] [%] | Max. Disp. %, 3H-WIN55212-2 [5, 17] [%] | further results
CCCCCCC(C)(C)c1ccc([C@@H]2C[C@H](O)CC[C@H]2CCCO)c(O)c1 [CP55,940] |  |  |  |  |  |  |  |  |  |  |  |  |  |  |  | affinity at CB1 and CB2 receptor sites [1]: approximately equal affinity
CCCCCNC(=O)c1nn(-c2ccc(Cl)cc2Cl)c(-c2ccc(Cl)cc2)c1C [MF9725-67-17] | 87.1 | 89.9 | 89.9 | 0.0146 | 0.00635 | 0.0187 | -7.4 | 75.9 | 1.11 | 0.0126 | 0.0114 | 0.00683 | 91.4 | 100 | 94.4 | EC50 [3, 10]: 5.27 µM
Cc1c(C(=O)NCCO)nn(-c2ccc(Cl)cc2Cl)c1-c1ccc(Cl)cc1 [MF9725-93-31] |  |  |  |  |  |  |  | 33.3 | 4.27 |  | 0.385 | 0.343 | 73.2 | 85.5 |  | Emax ([3]; whole rat brain membranes, effects reported as percent change from basal): -76.5%; EC50 ([3]; whole rat brain membranes, value above highest concentration tested (footnote), read-out: EC50, GTP-γ-[35S] in Whole Rat Brain, value is above highest concentration on displacement curve): ≥ 1670 µM; CB1 selectivity (CB1 versus CB2) [6]: 10 fold
CCCCCCCCNC(=O)c1nn(-c2ccc(Cl)cc2Cl)c(-c2ccc(Cl)cc2)c1C [MF9879-164-28] | 70.6 | 67.8 | 35.2 | 0.288 | 0.0447 | 0.267 | -21.3 | 45.3 |  | 0.0362 |  |  | 80.2 | 75.2 | 68.4 | EC50 [3]: ≥ 677 µM; Ki [4, 18]: 98.4 µM; Ki [5, 19]: 0.135 µM; Ki [5, 20]: 0.0374 µM
CCCCCCCCCNC(=O)c1nn(-c2ccc(Cl)cc2Cl)c(-c2ccc(Cl)cc2)c1C [MF10110-10-21] | 68.8 | 86.9 | 28.3 | 0.307 | 0.0565 | 3.55 | -20.1 | 53.8 |  | 0.0682 |  |  | 79.5 | 85.8 | 68.6 | EC50 [3, 10]: 294 µM; Ki [4, 18]: 22.9 µM; Ki [5, 19]: 0.333 µM; Ki [5, 20]: 0.0882 µM
CCOC(=O)c1nn(-c2ccc(Cl)cc2Cl)c(-c2ccc(Cl)cc2)c1C [SH9631-56] |  |  |  |  |  |  |  | 51.4 | 4.4 |  | 0.0318 | 0.0289 | 91.7 | 96.9 |  | Max. Disp. %, 3H-CP55940 ([2]; human CB1 transfected cells, radioligand 3H-CP55940, Table 3): 91.0%; Ki ([2]; read-out: Ki, displacement of 3H-CP55940): 0.0448 µM; EC50 [7]: 0.195 µM; Emax, GTP-γ-[35S] ([7]; percent change from basal): −18.4^c
Cc1c(C(=O)NN2CCCCC2)nn(-c2ccc(Cl)cc2Cl)c1-c1ccc(Cl)cc1 [SR141716A] |  |  |  |  |  |  |  |  |  |  |  |  |  |  |  | Ki for CB1 lower than for CB2 ([1]; selectivity for the CB1 over the CB2 receptor): over 50 fold
